Results taken from the NIST ThermoML archive (doi:10.1016/j.jct.2017.03.026).
Values joined by “and” are separate entries in the source; they are usually repeats but may differ in a detail not shown here. Identical values can stand only once.

Experiment: molar heat capacity at constant pressure
Conditions: 101.33 kPa, Crystal, Small (less than 1 g) adiabatic calorimetry

O.O.O.O.O.O=S(=O)([O-])[O-].[Cu+2] [copper(II) sulfate pentahydrate]
Conditions	molar heat capacity at constant pressure
195.86 K	210.72 J/K/mol
196.02 K	208.8 J/K/mol
196.2 K	210.85 J/K/mol
196.62 K	212.01 J/K/mol
196.78 K	210.59 J/K/mol
196.97 K	211.56 J/K/mol
197.34 K	208.77 J/K/mol
197.52 K	212.45 J/K/mol
197.54 K	211.37 J/K/mol
197.92 K	209.01 J/K/mol
198.12 K	212.62 J/K/mol
198.28 K	211.94 J/K/mol
198.86 K	213.01 J/K/mol
199.03 K	212.84 J/K/mol
199.23 K	213.44 J/K/mol
199.77 K	213.38 J/K/mol
199.89 K	214.1 J/K/mol
200 K	210.9 J/K/mol
200.02 K	210.29 J/K/mol
200.18 K	214.5 J/K/mol
200.35 K	215.02 J/K/mol
200.44 K	211.49 J/K/mol
200.5 K	214.14 J/K/mol
201.23 K	214.77 J/K/mol
201.49 K	215.23 J/K/mol
201.51 K	215.2 J/K/mol
201.96 K	215.31 J/K/mol
202.12 K	212.11 J/K/mol
202.61 K	217.02 J/K/mol
202.68 K	216.55 J/K/mol
202.83 K	216.31 J/K/mol
203.14 K	217.49 J/K/mol
203.42 K	216.87 J/K/mol
203.52 K	214.16 J/K/mol
203.74 K	217.35 J/K/mol
204.14 K	217.62 J/K/mol
204.2 K	218.19 J/K/mol
204.22 K	214.4 J/K/mol
204.87 K	218.11 J/K/mol and 218.14 J/K/mol
205.53 K	218.8 J/K/mol
205.59 K	218.93 J/K/mol
205.99 K	219.33 J/K/mol
206.31 K	219.39 J/K/mol
206.33 K	215.55 J/K/mol
206.4 K	220.52 J/K/mol
206.59 K	216.64 J/K/mol
206.85 K	220.61 J/K/mol
207.02 K	220.58 J/K/mol
207.11 K	220.48 J/K/mol
207.81 K	220.88 J/K/mol
208.18 K	221.52 J/K/mol
208.23 K	222.38 J/K/mol
208.45 K	218.01 J/K/mol
208.52 K	222.44 J/K/mol
209.24 K	222.92 J/K/mol
209.37 K	222.88 J/K/mol
209.5 K	223.33 J/K/mol
209.64 K	219.18 J/K/mol
209.68 K	223.6 J/K/mol
209.96 K	223.05 J/K/mol
210 K	219.4 J/K/mol
210.49 K	223.26 J/K/mol
210.58 K	219.18 J/K/mol
210.67 K	223.74 J/K/mol
210.83 K	223.72 J/K/mol
211.38 K	224.39 J/K/mol
211.61 K	224.89 J/K/mol
212.1 K	224.82 J/K/mol
212.14 K	225.35 J/K/mol
212.68 K	221.85 J/K/mol
212.7 K	220.97 J/K/mol
212.75 K	225.67 J/K/mol
212.81 K	225.63 J/K/mol
212.95 K	226.54 J/K/mol
213.47 K	226.67 J/K/mol
213.52 K	226.64 J/K/mol
213.88 K	226.4 J/K/mol
214.25 K	227.02 J/K/mol
214.8 K	227.75 J/K/mol
214.83 K	222.9 J/K/mol
214.96 K	227.58 J/K/mol
215 K	227.95 J/K/mol
215.67 K	228.21 J/K/mol
215.69 K	224.43 J/K/mol
216.13 K	230.23 J/K/mol
216.19 K	228.74 J/K/mol
216.23 K	229.64 J/K/mol
216.38 K	229.09 J/K/mol
216.96 K	224.83 J/K/mol
217.1 K	229.55 J/K/mol
217.31 K	230.09 J/K/mol
217.46 K	230.34 J/K/mol
217.81 K	229.9 J/K/mol
218.45 K	231.22 J/K/mol
218.51 K	230.59 J/K/mol
218.69 K	227.07 J/K/mol
218.79 K	231.49 J/K/mol
219.1 K	226.58 J/K/mol
219.27 K	231.87 J/K/mol
219.52 K	232.65 J/K/mol
219.6 K	231.9 J/K/mol
219.98 K	232.07 J/K/mol
220 K	228 J/K/mol
220.12 K	232.93 J/K/mol
220.68 K	232.63 J/K/mol
220.72 K	233.3 J/K/mol
221.23 K	229.07 J/K/mol
221.39 K	233.36 J/K/mol
221.44 K	233.44 J/K/mol
221.67 K	229.65 J/K/mol
221.86 K	234.58 J/K/mol
222.09 K	234.58 J/K/mol
222.76 K	235.19 J/K/mol
222.81 K	235.64 J/K/mol and 235.01 J/K/mol
223 K	235.73 J/K/mol
223.42 K	230.15 J/K/mol
223.51 K	235.25 J/K/mol
224.08 K	236.48 J/K/mol
224.14 K	236.55 J/K/mol
224.22 K	235.98 J/K/mol
224.64 K	232.13 J/K/mol
224.92 K	236.68 J/K/mol
225.28 K	237.03 J/K/mol
225.45 K	237.85 J/K/mol
225.57 K	231.89 J/K/mol
225.62 K	237.74 J/K/mol
226.1 K	239.21 J/K/mol
226.33 K	238.26 J/K/mol
226.41 K	238.72 J/K/mol
226.77 K	238.57 J/K/mol
227.03 K	238.58 J/K/mol
227.55 K	239.68 J/K/mol
227.61 K	234.56 J/K/mol
227.72 K	233.69 J/K/mol
227.73 K	239.34 J/K/mol
228.08 K	239.61 J/K/mol
228.43 K	239.99 J/K/mol
228.69 K	240.1 J/K/mol
229.13 K	241.13 J/K/mol
229.38 K	242.74 J/K/mol and 240.91 J/K/mol
229.82 K	241.69 J/K/mol
229.84 K	241.43 J/K/mol
229.87 K	235.54 J/K/mol
230 K	236.5 J/K/mol
230.54 K	237.24 J/K/mol
230.59 K	242.26 J/K/mol
230.69 K	242.63 J/K/mol
230.95 K	243.17 J/K/mol
231.28 K	242.67 J/K/mol
231.97 K	243.3 J/K/mol
232 K	244.22 J/K/mol
232.02 K	238.28 J/K/mol
232.09 K	244.43 J/K/mol
232.67 K	243.85 J/K/mol
232.75 K	246.09 J/K/mol
233.23 K	245.48 J/K/mol
233.31 K	244.86 J/K/mol
233.36 K	244.3 J/K/mol
